Data taken from publication PMC4474554 (PLoS ONE, 2015).
Values joined by “and” are separate entries in the source; they are usually repeats but may differ in a detail not shown here. Equal values may be shown once. “Also recorded” adds a separate entry of the source. Read-outs that look alike come from different tables or passages of the source.

Columns and labels:
phospho-FAK = assay: Western blotting, FAK phosphorylation in NSCLC cell lines; type: cell-based
Protocol: (§1) Next, they were washed out with cold PBS and lysed in 1 × cell lysis buffer [20 mM Tris-HCl (pH 7.5), 150 mM NaCl, 1 mM Na2EDTA, 1 mM EGTA, 1% Triton, 2.5 mM sodium pyrophosphate, 1 mM beta-glycerophosphate, 1 mM Na3VO4, 1 μg/ml leupeptin] (Cell signaling Technology) supplemented with Complete, Mini (Roche, Basel, Switzerland) to extract protein. After the protein concentration was measured, equal amounts of total protein (30 μg) were separated by SDS-PAGE and transferred to PVDF membranes. The proteins on membranes were incubated overnight at 4°C with the primary antibodies. The following secondary antibodies were used: goat antirabbit or antimouse IgG-conjugated horseradish peroxidase (HRP) (Santa Cruz Biotechnology, Santa Cruz, CA). To detect specific signals, the membranes were incubated by ECL plus Western Blotting Detection Reagents (Amersham Biosciences UK Limited, Buckinghamshire, UK).

phospho-IGF-IR = assay: Western blotting, IGF-IR phosphorylation in NSCLC cell lines; type: cell-based; conditions: up to a concentration of 5 μM; PC-9, HCC827, NCI-H1975, RPC-9, NCI-H1299, NCI-H1819
Protocol: as §1

[1] = tested on: phospho-EGFR and downstream AKT, MAPK; assay: Western blotting, EGFR, AKT and MAPK phosphorylation in NSCLC cell lines; type: cell-based
Protocol: as §1

PC-9 xenograft = PC-9 xenograft mouse model; type: in vivo, BALB/c-nu/nu female nude mice; conditions: oral, once a day, 14 days, 30, 60 and 90 mg/kg, dose-dependent
Protocol: (§2) In this experiment, we used BALB/c-nu/nu female nude mice at 4–6 weeks of age that were purchased from Charles River Laboratories Japan, Inc (Yokohama, Japan). They were maintained under specific-pathogen-free conditions in accordance with the guidelines of the Animal Care and Use Committee at Okayama University. […] Every three days, body weight of the mice and the major axis and minor axis of each tumor were measured and calculated tumor volume using the following formula; (major axis) × (minor axis)^2 × 1/2 [37, 38]. For the 14 days, tumor volume, tumor growth rate and the body weight were analyzed as an average of the each group.

RPC-9 xenograft = RPC-9 xenograft mouse model; type: in vivo, BALB/c-nu/nu female nude mice; conditions: oral, once a day, 14 days, 30, 60 and 90 mg/kg, dose-dependent
Protocol: as §2

[2] = Body weight / side effects in xenograft mice; type: in vivo, BALB/c-nu/nu female nude mice; conditions: 14 days, nude mice with xenografts
Protocol: as §2

FAK = tested on: FAK; parameters: method as in earlier work; conditions: updated data; cited from earlier work
IGF-1R = tested on: IGF-1R; parameters: method as in earlier work; conditions: updated data; cited from earlier work
Pyk2 = tested on: Pyk2; parameters: method as in earlier work; conditions: updated data; cited from earlier work
Syk = tested on: Syk; parameters: method as in earlier work; conditions: updated data; cited from earlier work
Lck = tested on: Lck; parameters: method as in earlier work; conditions: updated data; cited from earlier work
KDR = tested on: KDR; parameters: method as in earlier work; conditions: updated data; cited from earlier work
Flt-1 = tested on: Flt-1; parameters: method as in earlier work; conditions: updated data; cited from earlier work
FGFR-1 = conditions: updated data; cited from earlier work
c-Met = conditions: updated data; cited from earlier work
c-Kit = tested on: c-Kit; parameters: method as in earlier work; conditions: updated data; cited from earlier work
Tek = tested on: Tek; parameters: method as in earlier work; conditions: updated data; cited from earlier work
ALK = conditions: updated data; cited from earlier work
CDK1/cyclin B = tested on: CDK1/cyclin B; parameters: method as in earlier work; conditions: updated data; cited from earlier work
c-Raf = tested on: c-Raf; parameters: method as in earlier work; conditions: updated data; cited from earlier work
RPC-9 = assay: MTS assay, RPC-9
MKN45 = assay: MTS assay, MKN45
Calu-3 = assay: MTS assay, Calu-3
NCI-H838 = assay: MTS assay, NCI-H838
NCI-H1395 = assay: MTS assay, NCI-H1395
NCI-H1648 = assay: MTS assay, NCI-H1648
NCI-H1299 = assay: MTS assay, NCI-H1299
[3] = EGFR-mutant cell lines PC-9, HCC827, NCI-H1975, RPC-9

What does the source list for CNC(=O)c1ccccc1Nc1nc(Nc2ccc(N3CCOCC3)cc2OC)ncc1Cl [TAE226]?
concentration at which FAK phosphorylation was inhibited (phospho-FAK; data not shown): […]; phosphorylation of FAK (Thy397) (phospho-FAK; up to a concentration of 5 μM, PC-9, HCC827, NCI-H1975, RPC-9, NCI-H1299, NCI-H1819): not significantly inhibited; also recorded: not suppressed; phosphorylation of IGF-IR (Tyr1131) (phospho-IGF-IR): not significantly inhibited; also recorded: not suppressed; phosphorylation of EGFR [1, 3]: predominantly inhibited; phosphorylations of AKT and MAPK [1, 3]: inhibited; phosphorylations of EGFR, AKT, and MAPK ([1]; cell lines with wild-type EGFR (NCI-H1299 and NCI-H1819)): not inhibited; tumor volume / tumor growth compared with vehicle-treated mice (PC-9 xenograft): significantly decreased; also recorded: significantly inhibited; tumor volume / tumor growth compared with vehicle-treated mice (RPC-9 xenograft): significantly decreased; also recorded: significantly inhibited; obvious side effects, including the loss of body weight ([2]; 30mg/kg or 60mg/kg oral): did not occur; body weight ([2]; 90 mg/kg oral): loss of body weight was observed; IC50 (FAK): 5.5 nM; IC50 (IGF-1R): […]; IC50 (Pyk2): 40 nM; IC50 (Syk): […]; IC50 (Lck): […]; IC50 (KDR): […]; IC50 (Flt-1): […]; IC50 (FGFR-1): […]; IC50 (c-Met): 160 nM; IC50 (c-Kit): > 10000 nM; IC50 (Tek): 580 nM; IC50 (ALK): […]; IC50 (CDK1/cyclin B): 540 nM; IC50 (c-Raf): > 10000 nM; IC50 (RPC-9; read-out: IC50 (μM) (mean ± SD), RPC-9, EGFR Exon 19 del (E746-A750) + T790M, MTS, TAE226 48 hours, gefitinib 72 hours): 0.31 ± 0.03 µM; IC50 (RPC-9; read-out: each IC50, RPC-9, independent MTS assays): 0.35 µM and 0.33 µM and 0.28 µM and 0.27 µM; IC50 (MKN45; read-out: IC50 (μM) (mean ± SD), MKN45 (gastric cancer), MET amplification, MTS, TAE226 48 hours): 1.1 ± 0.06 µM; IC50 (MKN45; read-out: each IC50, MKN45, independent MTS assays): 1.04 µM and 1.16 µM; IC50 (Calu-3; read-out: IC50 (μM) (mean ± SD), Calu-3, HER2 amplification, MTS, TAE226 48 hours, gefitinib 72 hours): 4.1 ± 0.37 µM; IC50 (Calu-3; read-out: each IC50, Calu-3, independent MTS assays): 4.5 µM and 3.8 µM; IC50 (NCI-H838; read-out: IC50 (μM) (mean ± SD), NCI-H838, no alterations, MTS, TAE226 48 hours, gefitinib 72 hours): 6.2 ± 0.02 µM; IC50 (NCI-H838; read-out: each IC50, NCI-H838, independent MTS assays): 6.3 µM and 6.2 µM; IC50 (NCI-H838; read-out: mean IC50, NCI-H838, mean of independent MTS assays): 6.2 µM; IC50 (NCI-H1395; read-out: IC50 (μM) (mean ± SD), NCI-H1395, BRAF Exon 11 (G469A), MTS, TAE226 48 hours): […]; IC50 (NCI-H1395; read-out: each IC50, NCI-H1395, independent MTS assays): […]; IC50 (NCI-H1395; read-out: mean IC50, NCI-H1395, mean of independent MTS assays): […]; IC50 (NCI-H1648; read-out: IC50 (μM) (mean ± SD), NCI-H1648, HER2 amplification, MTS, TAE226 48 hours, gefitinib 72 hours): 1.7 ± 0.07 µM; IC50 (NCI-H1648; read-out: each IC50, NCI-H1648, independent MTS assays): 1.7 µM and 1.8 µM; IC50 (NCI-H1648; read-out: mean IC50, NCI-H1648, mean of independent MTS assays): 1.7 µM; IC50 (NCI-H1299; read-out: IC50 (μM) (mean ± SD), NCI-H1299, no alterations, MTS, TAE226 48 hours, gefitinib 72 hours): 2.8 ± 0.26 µM; IC50 (NCI-H1299; read-out: each IC50, NCI-H1299, independent MTS assays): 3.1 µM and 3 µM and 2.7 µM and 2.4 µM
